Results on eight compounds are retold here after ChEMBL document CHEMBL3227956 (J Med Chem, 1979).

Data set [1] relates to L1210. Nature of the data set: Antitumor activity against mouse L1210 cells allografted in mouse assessed as increase in survival rate at 500 mg/kg, ip administered on day 1 measured on day 30 relative to control. It counts as functional. Conditions: route intraperitoneal.
Data set [2] deals with Mus musculus. Nature of the data set: Toxicity in mouse allografted with mouse L1210 cells assessed as survival rate at 500 mg/kg, ip administered on day 1 measured on day 30 relative to control. Also noted: dose 500 mg/kg, route intraperitoneal. Conditions: in vivo. It counts as organism-based.
The subject of data set [3] is L1210. Nature of the data set: Antitumor activity against mouse L1210 cells allografted in mouse assessed as increase in survival rate at 62.5 mg/kg, ip administered on day 1 measured on day 30 relative to control. It counts as functional. Conditions: route intraperitoneal.
A short description of data set [4]: Hydrolytic stability in CDCl3 assessed as formation of 3-ammonio-2-bromopropyl phenylphosphonate measured within 2 hrs by NMR analysis. The class given is physicochemical.
A short description of data set [5]: Hydrolytic stability in D2O/Me2SO-d6 assessed as formation of 3-ammonio-2-bromopropyl phenylphosphonate at 37 degC after 24 hrs by NMR analysis. It counts as physicochemical.
The nature of data set [6]: Hydrolytic stability in deuteriochloroform. The class given is physicochemical.
The subject of data set [7] is L1210. Nature of the data set: Antitumor activity against mouse L1210 cells allografted in mouse assessed as increase in survival rate at 150 mg/kg, ip administered on day 1 measured on day 30 relative to control. It counts as functional. Particulars: route intraperitoneal.
Data set [8] deals with Mus musculus. Description: Toxicity in mouse allografted with mouse L1210 cells assessed as survival rate at 150 mg/kg, ip administered on day 1 measured on day 30 relative to control. It counts as organism-based. Details: dose 150 mg/kg, route intraperitoneal. Particulars: in vivo.
Data set [9] concerns Mus musculus. Nature of the data set: Toxicity in mouse allografted with mouse L1210 cells assessed as survival rate at 250 mg/kg, ip administered on day 1 measured on day 30 relative to control. Particulars: in vivo. Details: dose 250 mg/kg, route intraperitoneal. The class given is organism-based.
Data set [10] is described as follows: Toxicity in mouse allografted with mouse ADJ/PC6 cells.
In another data set the test system is ADJ/PC6. Description: Antitumor activity against mouse ADJ/PC6 cells allografted in mouse.
Data set [11] is described as follows: Therapeutic index, ratio of LD50 for mouse allografted with mouse ADJ/PC6 cells to ED90 for mouse ADJ/PC6 cells allografted in mouse.
Data set [12] concerns W256. Description: Cytotoxicity against rat Walker 256 cells assessed as growth inhibition in absence of microsomal activation. Particulars: W256, read-out: ID50.
Data set [13] concerns W256. Description: Cytotoxicity against rat Walker 256 cells assessed as growth inhibition in presence of microsomal activation. Conditions: W256, read-out: ID50.
The test system of data set [14] is Mus musculus. Description: Toxicity in mouse allografted with mouse L1210 cells assessed as survival rate at 62.5 mg/kg, ip administered on day 1 measured on day 30 relative to control. The class given is organism-based. Details: dose 62.5 mg/kg, route intraperitoneal. Particulars: in vivo.

The structures appear in SMILES notation.

With `O=P12OCCCN1CCN2CCCl` (stereo not drawn), in the data set on L1210 [1], the T/C is listed as 105%. Also, the Activity entry in the data set on Mus musculus [2] is recorded as “Non-toxic”.
On to `O=P1(N2CC2)OCCCN1CCCl` (stereo not drawn), for which the T/C in the data set with L1210 [3] was determined as 110%.
On to `O=P1(c2ccccc2)NCC(Br)CO1` (stereo not drawn), for which the Stability entry is given as “Unstable” in data set [4], “Unstable” in data set [5] and “Stable” in data set [6].
Turning to `O=P1(Oc2ccccc2)NCC(Br)CO1` (stereo not drawn), the Stability result in data set [5] is reported as “Stable”.
`[O-][P@@+]1(Oc2ccccc2)NC[C@H](Br)CO1` (racemic): in the data set with L1210 [7], the T/C turned out to be 113%. Further, in the data set with Mus musculus [8], the Activity result was “Non-toxic”.
In the case of `O=P1(N(CCCl)CCCl)NCCCO1` (racemic) [CYCLOPHOSPHAMIDE ANHYDROUS], the Activity result in the data set on Mus musculus [9] was “Non-toxic”. The compound further showed an LD50 in [10] of 450 mg/kg. Further, the ED90 in the data set on ADJ/PC6 amounted to 4.75 mg/kg. Also, in data set [11], the selectivity ratio came to 95. The IC50 with W256 [12] is more than 500 mg/L; in the data set on W256 [13], 0.5 mg/L.
Turning to `[O-][P@@+]1(c2ccccc2)NC[C@@H](Br)CO1` (single isomer, unassigned; fast eluting), in the data set with Mus musculus [9], the Activity entry is reported as “Non-toxic”.
Regarding `[O-][P@@+]1(Oc2ccccc2)NC[C@@H](Br)CO1` (single isomer, unassigned; fast eluting), the T/C with L1210 [3] worked out at 107%. In addition, in the data set on Mus musculus [14], the Activity entry is on record as “Non-toxic”.

Broadly, the T/C is the result in the treated group divided by that in the control group, in per cent. A word on the LD50: it is the dose at which mortality reaches 50%. Low readings indicate greater toxicity, high ones lower toxicity.
